Assay results published in US20080219975A1, “VEGFR3 INHIBITORS” (priority 2006, published 2008).

How the values were obtained:
VEGFR3 [1] = target: T1, VEGFR3 (Homo sapiens, UniProt P35916); experiment: VEGFR3 in vitro kinase assay; type: biochemical; settings: 10 μM ATP
Protocol: The VEGFR3 kinase reaction was performed at 30° C. for 10 minutes in a 96-well microtiterplate. The 25 μl reaction volume contained 8 mM MOPS pH 7, 200 μM EDTA, 10 mM MgAc, 10 μM unlabeled ATP, […] AT33P, 500 μM JAK3-tide (Ac-GGEEEEYFELVKKKK-NH2), 25 ng VEGFR3 and 2% compound in 100% DMSO.
The reaction was stopped by adding 5 μl of a 3% phosphoric acid solution. 10 μl of the reaction mixture was then spotted onto a Filtermat P30 filter (Wallac) and washed 3 times for 5 min. in 0.75% phosphoric acid and 1 time for 2 min. in methanol prior to transferring to a sealable plastic bag containing 4 ml of scintillation liquid and reading in a scintillation counter.

[2] = tested on: VEGFR3 dependent VEGF-C stimulation of Erk1/2; experiment: Inhibition of Erk activation induced by VEGF-C in HMVEC-d cells; type: cell-based, human; settings: 5 μM, 100 ng/ml VEGF-C (FIG. 2)
Protocol: (§1) HMVEC-d cells (Cambrex) were cultured at 37 C in 5% CO2 in appropriate serum containing medium (Cambrex) on fibronectin coated 12-well plates (BD Biocoat, Becton Dickinson) for 4 days. Cells were then starved for 16 hours in the same medium as before, but lacking serum and containing SITE+3 (Invitrogen) instead. Cells were then preincubated with DMSO at 0.2% (the solvent) or 5 uM Compound 2 for 60 minutes and then either 10 ng/ml VEGF or 100 ng/ml VEGF-C (R&D systems) was added to the cells. Before, or 10 and 30 minutes after stimulation, the medium was removed, cells were rinsed with ice-cold PBS containing 0.1 mM sodiumorthovanadate and lysed in M-PER buffer (PIERCE) containing 0.1% SDS, and 1× phosphatase and protease inhibitors (HALT, PIERCE). Cells were scraped off the plates and incubated in lysis buffer for 30 minutes on ice and then centrifuged at 4° C. for 10 min at 16000×g. Lysates were quantified using the BCA reagent according to the manufacturer's instructions (PIERCE), and […] of total protein was loaded on SDS-polyacrylamide gels (NUPAGE, Invitrogen). Electrophoresis and blotting onto PVDF membranes was all performed using reagents from the NUPAGE system, according to the manufacturer's instructions. […]

[3] = tested on: VEGFR1 mediated VEGF signaling; experiment: VEGF stimulation of Erk1/2 in HMVEC-d cells; type: cell-based, human; settings: 5 μM, 10 ng/ml VEGF (FIG. 2)
Protocol: as §1

Xenopus tadpoles = experiment: VEGFR3 in vivo Xenopus assay (lymphangiogenesis, LEC migration); settings: for % Relative Area 2-3: LECs in area 2-3 relative to vehicle control; for % Relative Max Migration: furthest LEC migration from PCV relative to vehicle control; for % embryos with reduced migration: stages 35-36 tadpoles
Protocol: Xenopus tadpoles were used as a model (Ny et al Nature Medicine 11: 998-1004 (2005)) to analyze the effects of Compound 2 on lymphangiogenesis. The compound was administered daily in a dose dependent manner, with vehicle controls, to the medium of the Xenopus tadpoles starting at stage 26-28, i.e., before the formation of both blood and lymphatic vessels. The effects of the compound was monitored by “live analysis”, i.e. live embryos were examined 4 days later for evidence of lymph-vascular defects by trained observers. As an additional means of confirming the results, in a limited number of experiments, tadpoles were fixed at stage 35-36 and in situ hybridizations for Prox1 were performed to assess migration of lymphatic endothelial cells (LECs) from the posterior cardinal vein (PCV) to their dorsal endpoint, this reflecting an essential step in lymphangiogenesis. Under normal circumstances, LECs arise from the region of the PCV, accumulate there, and during the study period, they migrate dorsally to defined “areas” (Area 1 to Area 2 and Area 3), where they then further migrate rostrally and caudally to form the lymphatic vasculature in the tail and trunk. Defects in migration of the LECs from the PCV was quantified by determining the maximal migration of the cells, and by counting the number of cells in these different regions in the tail.

VEGFR3 [4] = target: T1, VEGFR3; experiment: Inhibition of VEGF-C induced VEGFR-3 phosphorylation in PAE cells stably expressing human VEGFR-3; type: cell-based; set-up: expressed in transfected cells; host or cells: porcine aortic endothelial (PAE) cells; settings: PAE cells expressing human VEGFR-3, 100 ng/ml VEGF-C, Western blot (FIG. 1)
Protocol: For this assay, porcine aortic endothelial (PAE) cells stably expressing human VEGFR-3 were grown to confluency on 10 cm dishes. The cells were serum starved overnight and the media replaced with fresh serum-free media. […] This was followed by the addition of VEGF-C to a final concentration of 100 ng/ml and the cells incubated for 10 min at 37° C., after which they were washed with ice-cold PBS and then lysed. Cell lysates containing protease inhibitors were subjected to immunoprecipitation with an antibody specific for VEGFR-3 and the immunoprecipitates separated by SDS-PAGE. Proteins were transferred to a nitrocellulose membrane, and then probed first with a phospho-tyrosine antibody and then a VEGFR-3 antibody.

T1 sequence (P35916 25-1363): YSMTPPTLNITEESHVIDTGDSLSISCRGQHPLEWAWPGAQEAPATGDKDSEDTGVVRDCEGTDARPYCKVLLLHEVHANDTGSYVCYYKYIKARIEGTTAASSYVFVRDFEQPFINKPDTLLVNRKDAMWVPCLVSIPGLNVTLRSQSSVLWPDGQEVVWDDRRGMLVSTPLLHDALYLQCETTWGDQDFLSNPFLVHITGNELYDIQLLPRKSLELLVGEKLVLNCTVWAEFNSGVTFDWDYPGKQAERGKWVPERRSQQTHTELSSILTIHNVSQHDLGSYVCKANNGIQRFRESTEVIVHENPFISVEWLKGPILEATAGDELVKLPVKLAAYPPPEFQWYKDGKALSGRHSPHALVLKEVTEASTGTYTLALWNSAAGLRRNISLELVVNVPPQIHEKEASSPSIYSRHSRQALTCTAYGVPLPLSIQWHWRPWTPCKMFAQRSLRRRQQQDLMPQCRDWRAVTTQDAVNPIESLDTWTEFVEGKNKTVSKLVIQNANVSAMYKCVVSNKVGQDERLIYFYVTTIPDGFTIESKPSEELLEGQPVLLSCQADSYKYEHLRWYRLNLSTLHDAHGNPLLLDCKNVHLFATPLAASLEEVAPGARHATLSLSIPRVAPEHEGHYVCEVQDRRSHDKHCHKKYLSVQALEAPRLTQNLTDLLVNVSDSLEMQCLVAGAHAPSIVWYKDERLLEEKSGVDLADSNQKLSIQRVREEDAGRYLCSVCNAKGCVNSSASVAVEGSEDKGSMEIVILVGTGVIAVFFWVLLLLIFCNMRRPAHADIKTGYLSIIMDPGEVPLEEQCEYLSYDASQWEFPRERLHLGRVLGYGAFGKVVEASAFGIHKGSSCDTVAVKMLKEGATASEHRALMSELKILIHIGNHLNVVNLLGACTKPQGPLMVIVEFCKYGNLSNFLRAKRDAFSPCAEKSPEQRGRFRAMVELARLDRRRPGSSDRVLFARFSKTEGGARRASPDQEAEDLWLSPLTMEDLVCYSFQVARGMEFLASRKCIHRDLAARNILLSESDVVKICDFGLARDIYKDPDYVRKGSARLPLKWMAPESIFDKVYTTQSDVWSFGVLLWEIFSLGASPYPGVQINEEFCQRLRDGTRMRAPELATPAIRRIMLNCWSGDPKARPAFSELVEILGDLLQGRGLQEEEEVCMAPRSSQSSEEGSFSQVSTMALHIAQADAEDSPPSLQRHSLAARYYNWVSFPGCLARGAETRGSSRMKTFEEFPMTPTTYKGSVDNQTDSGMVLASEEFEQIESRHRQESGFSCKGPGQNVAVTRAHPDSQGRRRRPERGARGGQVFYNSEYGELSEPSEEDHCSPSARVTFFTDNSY

COc1cc2ncnc3c2cc1OCCCCCN(C)Cc1ccc(Br)cc1N3 [Compound 2, 4,6-ethanediylidenepyrimido[4,5-b][6,1,12]benzoxadiazacyclo-pentadecine, 17-bromo-8,9,10,11,12,13,14,19-octahydro-20-methoxy-13-methyl-]
IC50 (VEGFR3 [1]): 18.2 nM | phosphorylation of Erk1/2 by VEGF-C [2]: prevented | VEGF stimulation of Erk1/2 [3]: did not interfere | % Relative Area 2-3 (Xenopus tadpoles; 0.3125 μM): 37 ± 20% | % Relative Max Migration (Xenopus tadpoles; 0.3125 μM): 73 ± 22% | % embryos with reduced migration (Xenopus tadpoles; 0.3125 μM): 57% | % Relative Area 2-3 (Xenopus tadpoles; 1.25 μM): 20 ± 8% | % Relative Max Migration (Xenopus tadpoles; 1.25 μM): 47 ± 5% | % embryos with reduced migration (Xenopus tadpoles; 1.25 μM): 63% | % Relative Area 2-3 (Xenopus tadpoles; 5 μM): 123 ± 32% | % Relative Max Migration (Xenopus tadpoles; 5 μM): 121 ± 3% | % embryos with reduced migration (Xenopus tadpoles; 5 μM): 40% | % Relative Area 2-3 (Xenopus tadpoles; 20 μM): 19 ± 8% | % Relative Max Migration (Xenopus tadpoles; 20 μM): 35 ± 1% | tadpoles that developed edema (Xenopus tadpoles; 20 uM, live screening): 10% | % embryos with reduced migration (Xenopus tadpoles; 20 μM): 60% | % Relative Area 2-3 (Xenopus tadpoles; 80 μM): 56 ± 15% | % Relative Max Migration (Xenopus tadpoles; 80 μM): 67 ± 21% | % embryos with reduced migration (Xenopus tadpoles; 80 μM): 80% | tadpoles with hemorrhages (Xenopus tadpoles; concentrations >50 uM, live screening): 30% | effects in Xenopus tadpole model (Xenopus tadpoles; in vivo): phenocopy the effects of VEGF-C knockout | Lymphatic Endothelial Cell (LEC) migration in tadpoles (Xenopus tadpoles; stage 35-36 tadpoles): dose dependently inhibits | VEGF-C induced VEGFR-3 phosphorylation (VEGFR3 [4]): dose dependent reduction

COc1cc2ncnc3c2cc1OCCCCCCOc1c(Cl)cccc1N3 [4,6-ethanediylidene-19H-pyrimido[4,5-b][6,13,1]benzodioxaazacyclo-pentadecine, 15-chloro-8,9,10,11,12,13-hexahydro-20-methoxy-]
melting point: 255.5 to 260.2 °C
